Test results: the supplement of paper PMC10307832

Experiments:
Assay in all cases: relative viability (nuclei count vs DMSO), 5 days (fraction); higher = more cells survive
[1] = compound: CC1=CC=C(C=C1)C(=O)CN2C3=C(CCCC3)SC2=N [Pifithrin_alpha] + C[C@@H](Oc1cc(-c2cnn(C3CCNCC3)c2)cnc1N)c1c(Cl)ccc(F)c1Cl [Crizotinib] (partner 1 µM)
In short: (§1)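 After 5 days of treatment, lung cancer cells in 1536-well plates were fixed and stained in a single step (final 0.05% Triton X-100, 1% formaldehyde, 1 ug/ml Hoechst) and their nuclei counted on 4× images. Treatment had been applied by pin tool the day after seeding as one drug alone or as a fixed anchor-drug dose with five library-drug doses (not always all listed) in √10 steps. Relative viability is the nuclei count of treated wells divided by that of vehicle wells, and values are medians of duplicate plates.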

[2] = compound: CC1=CC=C(C=C1)C(=O)CN2C3=C(CCCC3)SC2=N [Pifithrin_alpha] + N=C(N)NC(=N)NCCc1ccccc1 [Phenformin] (partner 250 µM)
In short: as §1

[3] = compound: CNC(=O)c1ccccc1Sc1ccc2c(/C=C/c3ccccn3)n[nH]c2c1 [Axitinib] + Cc1nc(Nc2ncc(C(=O)Nc3c(C)cccc3Cl)s2)cc(N2CCN(CCO)CC2)n1 [Dasatinib] (partner 0.075 µM)
In short: as §1

[4] = compound: Nc1nc(Nc2ccc3c(c2)CC[C@@H](N2CCCC2)CC3)nn1-c1cc2c(nn1)-c1ccccc1CCC2 [Bemcentinib] + CC(C)C[C@H](NC(=O)[C@H](Cc1ccccc1)NC(=O)c1cnccn1)B(O)O [Bortezomib] (partner 0.002 µM)
In short: as §1

Row | Cell Line | relative viability ([1]; first compound 1 µM) | relative viability ([1]; first compound 3.162 µM) | relative viability ([1]; first compound 10 µM) | relative viability ([1]; first compound 100 µM) | relative viability ([2]; first compound 1 µM) | relative viability ([2]; first compound 3.162 µM) | relative viability ([2]; first compound 10 µM) | relative viability ([2]; first compound 31.62 µM) | relative viability ([2]; first compound 100 µM) | relative viability ([3]; first compound 0.005 µM) | relative viability ([3]; first compound 0.01581 µM) | relative viability ([3]; first compound 0.05 µM) | relative viability ([3]; first compound 0.1581 µM) | relative viability ([3]; first compound 0.5 µM) | relative viability ([4]; first compound 0.04 µM) | relative viability ([4]; first compound 0.1265 µM) | relative viability ([4]; first compound 0.4 µM) | relative viability ([4]; first compound 1.265 µM) | relative viability ([4]; first compound 4 µM) | relative viability ([1]; first compound 31.62 µM)
1 | HCC-78 | 0.319 | 0.289 | 0.321 | 0.321 | 0.433 | 0.727 | 0.664 | 0.645 | 0.69 | 0.328 | 0.288 | 0.534 | 0.387 | 0.329 | 0.485 | 0.516 | 0.556 | 0.541 | 0.491 | –
2 | HCC-366 | 0.812 | 0.517 | 0.418 | 0.198 | 0.662 | 0.658 | 0.618 | – | 0.533 | 0.7 | 0.646 | 0.711 | 0.581 | 0.455 | 0.985 | 1.16 | 1.35 | 1.1 | 1.06 | –
3 | HCC-827 | 0.87 | 0.928 | 0.875 | 0.82 | 0.438 | 0.432 | 0.414 | 0.409 | 0.395 | 0.302 | 0.209 | 0.356 | 0.398 | 0.274 | 0.979 | 1.05 | 1.16 | 0.762 | 1.06 | 0.693
4 | HOP-62 | 0.97 | 1.14 | 0.848 | 1.04 | 0.601 | 0.903 | 0.749 | 0.59 | 0.81 | 0.693 | 0.704 | 0.77 | 0.684 | 0.726 | 0.753 | 0.822 | – | 0.779 | 0.736 | 0.645
5 | IA-LM | 0.652 | 0.622 | 0.705 | 0.433 | – | – | – | – | – | – | – | – | – | – | 0.663 | 0.696 | 0.799 | 0.923 | 0.808 | 0.463
6 | LC-2-ad | – | 0.505 | 0.425 | 0.473 | – | 0.601 | 0.646 | – | 0.588 | 0.526 | 0.572 | 0.425 | 0.546 | 0.486 | 1 | 1.01 | 1.11 | 0.968 | 0.982 | –
7 | LCLC-97TM1 | – | 0.45 | 0.277 | 0.306 | 0.46 | 0.479 | 0.459 | 0.435 | 0.475 | 0.834 | 0.722 | 0.857 | 0.753 | 0.842 | 0.571 | 0.794 | 0.703 | 0.602 | 0.473 | –
8 | LCLC-103H | 1.06 | 1.04 | 1.01 | 1.07 | 0.336 | 0.313 | 0.373 | 0.355 | 0.375 | 0.524 | 0.516 | 0.483 | 0.402 | 0.364 | 1.06 | 1.03 | 1.09 | 1.1 | 1.01 | 0.897
9 | LK-2 | 0.2 | 0.22 | 0.217 | 0.212 | 0.352 | 0.571 | 0.563 | – | 0.466 | 0.333 | 0.305 | 0.343 | 0.282 | 0.223 | – | – | – | – | – | –
10 | LOU-NH91 | 0.704 | 0.722 | 0.748 | 0.654 | 0.514 | 0.647 | 0.689 | 0.665 | 0.627 | 0.569 | 0.434 | 0.61 | 0.558 | 0.568 | 0.429 | 0.503 | 0.493 | 0.487 | 0.407 | 0.689
11 | NCI-H358 | 0.616 | 0.589 | 0.516 | 0.625 | 0.353 | 0.389 | 0.357 | 0.272 | 0.344 | 0.116 | 0.153 | 0.155 | 0.142 | 0.146 | – | – | – | – | – | 0.428
12 | NCI-H522 | – | – | – | – | 0.736 | 0.63 | 0.65 | 0.673 | 0.693 | 1.51 | 0.842 | 0.883 | 0.898 | 0.728 | – | – | – | – | – | –
13 | NCI-H1299 | 0.997 | 0.992 | 1.05 | 0.897 | – | – | – | – | – | – | – | – | – | – | 0.981 | 1.03 | 1.03 | 1.04 | 1.09 | 0.76
14 | NCI-H1395 | – | – | – | – | 0.428 | 0.433 | 0.411 | 0.416 | 0.41 | 0.403 | 0.425 | 0.39 | 0.404 | 0.397 | – | – | – | – | – | –
15 | NCI-H1623 | – | – | – | – | 0.556 | 0.619 | 0.556 | 0.465 | 0.561 | 0.574 | 0.477 | 0.559 | 0.528 | 0.506 | – | – | – | – | – | –
16 | NCI-H1703 | 0.577 | 0.531 | 0.803 | 1.05 | – | – | – | – | – | – | – | – | – | – | 0.25 | 0.237 | 0.292 | 0.284 | 0.29 | 0.455
17 | NCI-H1793 | – | – | – | – | – | 0.339 | 0.306 | 0.33 | 0.329 | 0.406 | 0.405 | 0.394 | 0.293 | 0.301 | – | – | – | – | – | –
18 | NCI-H1944 | 1.13 | 1.18 | 0.866 | 0.958 | 0.165 | 0.209 | 0.191 | 0.166 | 0.22 | 0.213 | 0.223 | 0.214 | 0.202 | 0.188 | – | – | – | – | – | –
19 | NCI-H2170 | 1.3 | 1.32 | 1.24 | 1.19 | 0.411 | 0.41 | 0.376 | 0.321 | 0.358 | 0.606 | 0.579 | 0.64 | 0.582 | 0.522 | – | – | – | – | – | 0.96
20 | NCI-H2342 | – | – | – | – | 0.484 | 0.622 | 0.543 | 0.585 | 0.553 | 0.311 | 0.325 | 0.347 | 0.349 | 0.297 | – | – | – | – | – | –
21 | SK-MES-1 | 0.934 | 0.933 | 0.976 | 0.765 | 0.571 | 0.67 | 0.659 | 0.474 | 0.571 | 0.42 | 0.435 | 0.446 | 0.382 | 0.622 | – | – | – | – | – | 0.683
22 | SW 900 | – | – | – | – | 0.519 | 0.605 | 0.715 | 0.569 | 0.393 | 0.439 | 0.555 | 0.663 | 0.653 | 0.709 | – | – | – | – | – | –
